{"source": "patent US9302999B2", "about": "“Substituted triazoles as herbicides” (E. I. DU PONT DE NEMOURS AND COMPANY, priority 2012, dated 2016)", "assay_type_in_all_cases": "in vivo", "key": {"corn (Zea mays)": {"test_system": "corn (Zea mays)", "assay": "Test F pre-/postemergence: corn", "from_the_text": "(§1) Seeds of plant species selected from corn (Zea mays), soybean (Glycine max), velvetleaf (Abutilon theophrasti), lambsquarters (Chenopodium album), poinsettia, wild (wild poinsettia, Euphorbia heterophylla), pigweed, palmer (palmer pigweed, Amaranthus palmeri), waterhemp (common waterhemp, Amaranthus rudis), surinam grass (Brachiaria decumbens), crabgrass, Brazil (Brazilian crabgrass, Digitaria horizontalis), panicum, fall (fall panicum Panicum dichotomiflorum), crabgrass, large (large crabgrass, Digitaria sanguinalis), foxtail, giant (giant foxtail, Setaria faberii), foxtail, green (green foxtail Setaria viridis), goosegrass (Eleusine indica), ragweed (common ragweed, Ambrosia elatior), barnyardgrass (Echinochloa crus-galli), sandbur (southern sandbur, Cenchrus echinatus), arrowleaf sida (Sida rhombifolia), ryegrass, Italian (Italian ryegrass, Lolium multiflorum), dayflower, VA (Virginia (VA) dayflower, Commelina virginica), field bindweed (Convolvulus arvensis), cocklebur (common cocklebur, Xanthium strumarium), morningglory (Ipomoea coccinea), nightshade (eastern black nightshade, Solanum ptycanthum), kochia (Kochia scoparia), nutsedge, yellow (yellow nutsedge, Cyperus esculentus), johnsongrass (Sorghum halepense), smartweed (ladysthumb smartweed, Polygonum persicaria), and beggarticks (hairy beggarticks, Bidens pilosa), were planted into a silt loam soil and treated preemergence with test chemicals formulated in a non-phytotoxic solvent mixture which included a surfactant. At the same time, plants selected from these crop and weed species and also pigweed (Amaranthus retroflexus), waterhemp_RES1 (ALS/Triazine resistant common waterhemp, Amaranthus rudis) and waterhemp_RES2 (ALS/HPPD resistant common waterhemp, Amaranthus rudis) were planted in pots containing a planting medium comprising spaghnum peat moss, vermiculite, wetting agent and starter nutrients treated with postemergence applications of some of the test chemicals formulated in the same manner. Plants ranged in height from 2 to 18 cm for postemergence treatments (1- to 4-leaf stage).\n(§2) Treated plants and controls were maintained in a greenhouse for 14 to 21 days, after which time all species were compared to controls and visually evaluated. Plant response ratings, summarized in Table E, are based on a scale of 0 to 100 where 0 is no effect and 100 is complete control. A dash (-) response means no test result."}, "[1]": {"test_system": "field bindweed (Convolvulus arvensis)", "assay": "Test F pre-/postemergence: field bindweed", "from_the_text": "as §1, §2"}, "[2]": {"test_system": "velvetleaf (Abutilon theophrasti)", "assay": "Test F pre-/postemergence: velvetleaf", "conditions": "Preemergence", "from_the_text": "as §1, §2"}, "[3]": {"test_system": "cocklebur (common cocklebur, Xanthium strumarium)", "assay": "Test F pre-/postemergence: cocklebur", "conditions": "Preemergence", "from_the_text": "as §1, §2"}, "[4]": {"conditions": "Preemergence, 16 g ai/ha, scale 0 to 100, 0 no effect, 100 complete control"}, "[5]": {"conditions": "Preemergence, 31 g ai/ha, scale 0 to 100, 0 no effect, 100 complete control"}, "[6]": {"conditions": "Preemergence, 62 g ai/ha, scale 0 to 100"}, "[7]": {"conditions": "Preemergence, 125 g ai/ha, scale 0 to 100"}, "[8]": {"conditions": "Preemergence, 250 g ai/ha, scale 0 to 100"}, "[9]": {"conditions": "16 g ai/ha, scale 0 to 100, 0 no effect, 100 complete control"}, "[10]": {"conditions": "31 g ai/ha, scale 0 to 100, 0 no effect, 100 complete control"}, "[11]": {"conditions": "Postemergence, 250 g ai/ha, scale 0 to 100"}, "[12]": {"conditions": "Postemergence, 16 g ai/ha, scale 0 to 100"}, "[13]": {"conditions": "Postemergence, 31 g ai/ha, scale 0 to 100"}, "[14]": {"conditions": "Postemergence, 62 g ai/ha, scale 0 to 100"}, "[15]": {"conditions": "Postemergence, 125 g ai/ha, scale 0 to 100"}}}
{"smiles": "Cc1nn(-c2ccc(F)cc2F)nc1Oc1ccnc(C(F)(F)F)c1", "note": "[Compound 146]", "values": [{"measurement": "Plant response rating, Corn", "setting": "corn (Zea mays); [4]", "value": 0}, {"measurement": "Plant response rating, Corn", "setting": "corn (Zea mays); [5]", "value": 0}, {"measurement": "Plant response rating, Corn", "setting": "corn (Zea mays); [6]", "value": 0}, {"measurement": "Plant response rating, Corn", "setting": "corn (Zea mays); [7]", "value": 0}, {"measurement": "Plant response rating, Corn", "setting": "corn (Zea mays); [8]", "value": 0}, {"measurement": "Plant response rating, Field Bindweed", "setting": "[1]; [4]", "value": 0}, {"measurement": "Plant response rating, Field Bindweed", "setting": "[1]; [5]", "value": 0}, {"measurement": "Plant response rating, Field Bindweed", "setting": "[1]; [6]", "value": 0}, {"measurement": "Plant response rating, Field Bindweed", "setting": "[1]; [7]", "value": 0}, {"measurement": "Plant response rating, Field Bindweed", "setting": "[1]; [8]", "value": 25}, {"measurement": "Plant response rating, Velvetleaf", "setting": "[2]; [9]", "value": 0}, {"measurement": "Plant response rating, Velvetleaf", "setting": "[2]; [10]", "value": 0}, {"measurement": "Plant response rating, Velvetleaf", "setting": "[2]; 125 g ai/ha, scale 0 to 100", "value": 0}, {"measurement": "Plant response rating, Velvetleaf", "setting": "[2]; 250 g ai/ha, scale 0 to 100", "value": 25}]}
{"smiles": "CCc1nn(-c2ccc(F)cc2)nc1Cc1ccnc(C(F)(F)F)c1", "note": "[Compound 154]", "values": [{"measurement": "Plant response rating, Corn", "setting": "corn (Zea mays); [4]", "value": 0}, {"measurement": "Plant response rating, Corn", "setting": "corn (Zea mays); [5]", "value": 0}, {"measurement": "Plant response rating, Corn", "setting": "corn (Zea mays); [6]", "value": 0}, {"measurement": "Plant response rating, Corn", "setting": "corn (Zea mays); [7]", "value": 5}, {"measurement": "Plant response rating, Corn", "setting": "corn (Zea mays); [8]", "value": 5}, {"measurement": "Plant response rating, Field Bindweed", "setting": "[1]; [4]", "value": 0}, {"measurement": "Plant response rating, Field Bindweed", "setting": "[1]; [5]", "value": 0}, {"measurement": "Plant response rating, Field Bindweed", "setting": "[1]; [6]", "value": 5}, {"measurement": "Plant response rating, Field Bindweed", "setting": "[1]; [7]", "value": 35}, {"measurement": "Plant response rating, Field Bindweed", "setting": "[1]; [8]", "value": 95}, {"measurement": "Plant response rating, Cocklebur", "setting": "[3]; [9]", "value": 0}, {"measurement": "Plant response rating, Cocklebur", "setting": "[3]; 62 g ai/ha, scale 0 to 100", "value": 0}, {"measurement": "Plant response rating, Cocklebur", "setting": "[3]; 250 g ai/ha, scale 0 to 100", "value": 0}, {"measurement": "Plant response rating, Velvetleaf", "setting": "[2]; [9]", "value": 0}, {"measurement": "Plant response rating, Velvetleaf", "setting": "[2]; [10]", "value": 20}, {"measurement": "Plant response rating, Velvetleaf", "setting": "[2]; 125 g ai/ha, scale 0 to 100", "value": 40}, {"measurement": "Plant response rating, Velvetleaf", "setting": "[2]; 250 g ai/ha, scale 0 to 100", "value": 100}]}
{"smiles": "CCc1nn(-c2ccc(C(F)(F)F)cc2)nc1Oc1ccnc(C(F)(F)F)c1", "note": "[Compound 169]", "values": [{"measurement": "Plant response rating, Corn", "setting": "corn (Zea mays); [11]", "value": 10}, {"measurement": "Plant response rating, Corn", "setting": "corn (Zea mays); [12]", "value": 5}, {"measurement": "Plant response rating, Corn", "setting": "corn (Zea mays); [13]", "value": 5}, {"measurement": "Plant response rating, Corn", "setting": "corn (Zea mays); [14]", "value": 10}, {"measurement": "Plant response rating, Corn", "setting": "corn (Zea mays); [15]", "value": 10}, {"measurement": "Plant response rating, Corn", "setting": "corn (Zea mays); [4]", "value": 0}, {"measurement": "Plant response rating, Corn", "setting": "corn (Zea mays); [5]", "value": 0}, {"measurement": "Plant response rating, Corn", "setting": "corn (Zea mays); [6]", "value": 0}, {"measurement": "Plant response rating, Corn", "setting": "corn (Zea mays); [7]", "value": 0}, {"measurement": "Plant response rating, Corn", "setting": "corn (Zea mays); [8]", "value": 0}, {"measurement": "Plant response rating, Field Bindweed", "setting": "[1]; [11]", "value": 55}, {"measurement": "Plant response rating, Field Bindweed", "setting": "[1]; [12]", "value": 20}, {"measurement": "Plant response rating, Field Bindweed", "setting": "[1]; [13]", "value": 20}, {"measurement": "Plant response rating, Field Bindweed", "setting": "[1]; [14]", "value": 30}, {"measurement": "Plant response rating, Field Bindweed", "setting": "[1]; [15]", "value": 35}, {"measurement": "Plant response rating, Field Bindweed", "setting": "[1]; [4]", "value": 0}, {"measurement": "Plant response rating, Field Bindweed", "setting": "[1]; [5]", "value": 0}, {"measurement": "Plant response rating, Field Bindweed", "setting": "[1]; [7]", "value": 20}, {"measurement": "Plant response rating, Field Bindweed", "setting": "[1]; [8]", "value": 80}, {"measurement": "Plant response rating, Cocklebur", "setting": "[3]; [9]", "value": 0}, {"measurement": "Plant response rating, Cocklebur", "setting": "[3]; [10]", "value": 0}, {"measurement": "Plant response rating, Cocklebur", "setting": "[3]; 62 g ai/ha, scale 0 to 100", "value": 0}, {"measurement": "Plant response rating, Velvetleaf", "setting": "[2]; [9]", "value": 0}, {"measurement": "Plant response rating, Velvetleaf", "setting": "[2]; [10]", "value": 0}, {"measurement": "Plant response rating, Velvetleaf", "setting": "[2]; 125 g ai/ha, scale 0 to 100", "value": 60}, {"measurement": "Plant response rating, Velvetleaf", "setting": "[2]; 250 g ai/ha, scale 0 to 100", "value": 100}]}
{"smiles": "CCc1nn(-c2ccc(F)c(F)c2)nc1Oc1ccnc(C(F)(F)F)c1", "note": "[Compound 171]", "values": [{"measurement": "Plant response rating, Corn", "setting": "corn (Zea mays); [4]", "value": 0}, {"measurement": "Plant response rating, Corn", "setting": "corn (Zea mays); [5]", "value": 0}, {"measurement": "Plant response rating, Corn", "setting": "corn (Zea mays); [6]", "value": 0}, {"measurement": "Plant response rating, Corn", "setting": "corn (Zea mays); [7]", "value": 0}, {"measurement": "Plant response rating, Corn", "setting": "corn (Zea mays); [8]", "value": 5}, {"measurement": "Plant response rating, Field Bindweed", "setting": "[1]; [4]", "value": 0}, {"measurement": "Plant response rating, Field Bindweed", "setting": "[1]; [5]", "value": 0}, {"measurement": "Plant response rating, Field Bindweed", "setting": "[1]; [6]", "value": 0}, {"measurement": "Plant response rating, Field Bindweed", "setting": "[1]; [7]", "value": 5}, {"measurement": "Plant response rating, Field Bindweed", "setting": "[1]; [8]", "value": 5}, {"measurement": "Plant response rating, Cocklebur", "setting": "[3]; [9]", "value": 0}, {"measurement": "Plant response rating, Cocklebur", "setting": "[3]; [10]", "value": 0}, {"measurement": "Plant response rating, Cocklebur", "setting": "[3]; 62 g ai/ha, scale 0 to 100", "value": 0}, {"measurement": "Plant response rating, Velvetleaf", "setting": "[2]; [9]", "value": 0}, {"measurement": "Plant response rating, Velvetleaf", "setting": "[2]; [10]", "value": 0}, {"measurement": "Plant response rating, Velvetleaf", "setting": "[2]; 125 g ai/ha, scale 0 to 100", "value": 15}, {"measurement": "Plant response rating, Velvetleaf", "setting": "[2]; 250 g ai/ha, scale 0 to 100", "value": 50}]}
